Results taken from patent US20100068204A1, “4-ARYLOXYQUINOLIN-2(1H)-ONES AS MTOR KINASE AND PI3 KINASE INHIBITORS, FOR USE AS ANTI-CANCER AGENTS” (Wyeth, priority 2008, published 2010).
pIC50: −log10 of the molar value.

Legend:
[1] = system: MDA468 breast tumor cells; experiment: In vitro cell growth assay (MTS), MDA468; assay type: cell-based, human; conditions: Homo sapiens, 72 h, three days after drug treatment
Outline: (§1)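 Tumor cells plated ~3000/well; inhibitors in DMSO added one day later (final DMSO 0.25%). After three days of treatment, viable cell density read by MTS conversion, absorbance at 490 nm. Effect expressed relative to untreated control growth.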

PI3Kα = PI3Kα (Homo sapiens, UniProt P42336); experiment: PI3Kα fluorescence polarization assay; assay type: biochemical; conditions: 20 μM PIP2, 25 μM ATP
Outline: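 Kinase reaction in 20 mM HEPES pH 7.5, 2 mM MgCl2, 0.05% CHAPS with final 20 μM diC8-PIP2 and 25 μM ATP, 30-60 min at room temperature. Stopped with 10 nM TAMRA-labelled probe plus 2.5 uM GST-murine GRP; fluorescence polarization read after 90-110 minutes.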

[2] = system: LNCap prostate tumor cells; experiment: In vitro cell growth assay (MTS), LNCap; assay type: cell-based, human; conditions: Homo sapiens, LNCaP, 72 h, three days after drug treatment
Outline: as §1

human TOR (FLAG-TOR) = human TOR (FLAG-TOR) (Homo sapiens, UniProt P42345); experiment: mTOR enzyme assay (DELFIA format, purified enzyme); assay type: biochemical; conditions: 800 ng/ml FLAG-TOR, 100 μM ATP, 1.25 μM His6-S6K; read-out: mTOR Kinase IC50

Chain of PI3Kα (P42336 whole entry, species assumed): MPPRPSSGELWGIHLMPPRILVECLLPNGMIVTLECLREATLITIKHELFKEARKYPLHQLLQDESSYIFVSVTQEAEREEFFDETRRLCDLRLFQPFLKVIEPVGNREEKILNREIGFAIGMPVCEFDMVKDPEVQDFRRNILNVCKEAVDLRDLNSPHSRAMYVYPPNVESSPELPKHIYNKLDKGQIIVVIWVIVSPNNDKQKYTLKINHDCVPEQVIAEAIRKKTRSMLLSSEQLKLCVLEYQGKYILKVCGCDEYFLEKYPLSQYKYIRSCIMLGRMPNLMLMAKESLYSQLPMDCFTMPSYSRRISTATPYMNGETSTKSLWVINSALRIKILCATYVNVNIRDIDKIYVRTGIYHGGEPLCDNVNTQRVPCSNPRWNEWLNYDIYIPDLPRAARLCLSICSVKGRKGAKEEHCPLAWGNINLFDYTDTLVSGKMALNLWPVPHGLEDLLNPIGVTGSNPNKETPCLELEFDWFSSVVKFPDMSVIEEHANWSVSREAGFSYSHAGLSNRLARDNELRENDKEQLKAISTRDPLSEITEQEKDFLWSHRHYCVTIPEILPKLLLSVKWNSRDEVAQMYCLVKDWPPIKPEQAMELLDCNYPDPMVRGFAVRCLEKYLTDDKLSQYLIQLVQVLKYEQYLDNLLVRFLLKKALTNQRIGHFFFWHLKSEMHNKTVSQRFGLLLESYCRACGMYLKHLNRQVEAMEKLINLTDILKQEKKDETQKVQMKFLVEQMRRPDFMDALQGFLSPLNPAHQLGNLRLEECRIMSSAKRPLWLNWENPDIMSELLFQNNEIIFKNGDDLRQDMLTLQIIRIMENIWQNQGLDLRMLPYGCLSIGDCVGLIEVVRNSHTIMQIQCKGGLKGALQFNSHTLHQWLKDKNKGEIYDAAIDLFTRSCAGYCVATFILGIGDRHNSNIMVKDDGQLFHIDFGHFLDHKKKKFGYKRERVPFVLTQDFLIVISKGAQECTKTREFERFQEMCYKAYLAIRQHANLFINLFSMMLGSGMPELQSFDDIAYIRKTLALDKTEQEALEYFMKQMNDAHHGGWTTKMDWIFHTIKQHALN
Chain of PI3Kα (P27986 whole entry partner, species assumed): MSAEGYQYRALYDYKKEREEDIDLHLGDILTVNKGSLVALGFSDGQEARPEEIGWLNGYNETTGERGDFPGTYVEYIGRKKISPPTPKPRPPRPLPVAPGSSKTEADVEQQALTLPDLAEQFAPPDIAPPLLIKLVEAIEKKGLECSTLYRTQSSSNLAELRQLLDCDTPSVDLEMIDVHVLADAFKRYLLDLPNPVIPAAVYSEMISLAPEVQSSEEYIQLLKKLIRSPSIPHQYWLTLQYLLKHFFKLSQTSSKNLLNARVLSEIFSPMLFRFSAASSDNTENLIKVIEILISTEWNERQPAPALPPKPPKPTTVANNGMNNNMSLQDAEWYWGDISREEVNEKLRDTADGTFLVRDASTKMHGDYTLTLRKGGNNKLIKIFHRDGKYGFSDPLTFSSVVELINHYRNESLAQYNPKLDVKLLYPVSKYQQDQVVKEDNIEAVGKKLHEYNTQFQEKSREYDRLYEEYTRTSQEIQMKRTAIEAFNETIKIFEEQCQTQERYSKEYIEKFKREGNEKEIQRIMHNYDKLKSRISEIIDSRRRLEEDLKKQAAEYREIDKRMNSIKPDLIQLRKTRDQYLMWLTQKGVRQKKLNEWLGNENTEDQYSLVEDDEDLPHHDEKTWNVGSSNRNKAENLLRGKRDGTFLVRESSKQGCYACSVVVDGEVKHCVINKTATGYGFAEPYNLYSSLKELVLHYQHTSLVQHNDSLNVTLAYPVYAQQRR

pIC50 [1] | pIC50 (PI3Kα) | pIC50 [2] | pIC50 (human TOR (FLAG-TOR)) | SMILES
4.22 | 4.62 | 5.05 | 6.43 | O=c1cc(Oc2ccccc2)c2ccccc2[nH]1
< 4.22 | < 5.00 | < 4.22 | < 4.70 | CC(=O)N1CCC(C(=O)Nc2ccc3[nH]c(=O)cc(Oc4ccccc4)c3c2)CC1
5.55 | 5.39 | 5.89 | 7.40 | CC(C)(C)C(=O)Nc1ncccc1CNc1cccc(Oc2cc(=O)[nH]c3ccccc23)c1
5.07 | 5.29 | 5.39 | 6.64 | CC(C)(C)OC(=O)NC1(CNc2cccc(Oc3cc(=O)[nH]c4ccccc34)c2)CCCC1
5.10 | 5.10 | 5.48 | 7.05 | O=c1cc(Oc2cccc(NCc3ccc(-c4cccnc4)cc3)c2)c2ccccc2[nH]1
5.00 | 5.41 | 5.37 | 7.05 | O=c1cc(Oc2cccc(NCc3ccc(-c4cccc(CO)n4)cc3)c2)c2ccccc2[nH]1
5.39 | 5.02 | 5.52 | 6.74 | O=c1cc(Oc2cccc(NCC3CCN(Cc4ccccc4)CC3)c2)c2ccccc2[nH]1
5.46 | < 5.00 | 5.28 | 6.77 | Nc1nc(Cl)c(CNc2cccc(Oc3cc(=O)[nH]c4ccccc34)c2)c(Cl)n1
4.92 | < 5.00 | 5.28 | 5.46 | O=c1cc(Oc2cccc(NCc3ccc(Oc4ccc(F)cc4)cc3)c2)c2ccccc2[nH]1
5.92 | 5.85 | 6.00 | 6.46 | Cn1ccc2cc(CNc3cccc(Oc4cc(=O)[nH]c5ccccc45)c3)ccc21
< 4.22 | 5.02 | < 4.22 | 4.80 | O=c1cc(Oc2ccc(-c3ccc(F)cc3)cc2)c2ccccc2[nH]1
4.64 | < 5.00 | < 4.22 | 5.74 | NC(=O)c1ccc(Oc2cc(=O)[nH]c3ccccc23)cc1
4.22 | 5.18 | 4.74 | < 4.70 | Nc1ccc(-c2ccc3[nH]c(=O)cc(Oc4ccccc4)c3c2)cc1
4.40 | < 5.00 | 4.77 | 5.15 | CN1CCN(c2ccc(Oc3cc(=O)[nH]c4ccccc34)cc2)CC1
5.05 | < 5.00 | 5.40 | 6.68 | CN1CCN(c2ccc(-c3cccc(Oc4cc(=O)[nH]c5ccccc45)c3)cn2)CC1
4.22 | < 5.00 | 4.35 | 6.11 | O=c1cc(Oc2ccc(C3N=CCN3)cc2)c2ccccc2[nH]1 (stereo not drawn)
4.22 | < 5.00 | < 4.22 | 6.24 | O=c1cc(Oc2ccc(C3=NCCCN3)cc2)c2ccccc2[nH]1
5.71 | 5.05 | 4.64 | 7.05 | Nc1ccc(-c2cccc(Oc3cc(=O)[nH]c4ccccc34)c2)cn1
5.70 | 5.17 | 5.33 | 6.82 | O=c1cc(Oc2cccc(-c3ccc(NCCN4CCOCC4)nc3)c2)c2ccccc2[nH]1
< 4.22 | < 5.00 | < 4.22 | 5.95 | O=c1cc(Oc2cccc(F)c2)c2ccccc2[nH]1
5.38 | 5.13 | 5.64 | 7.52 | N#C[BH2-][n+]1cccc(CNc2cccc(Oc3cc(=O)[nH]c4ccccc34)c2)c1
4.92 | 5.68 | 5.15 | 6.46 | CC(C)(C)CNc1ccc(CNc2cccc(Oc3cc(=O)[nH]c4ccccc34)c2)cn1
5.17 | < 5.00 | 5.55 | 7.05 | CNc1ncccc1CNc1cccc(Oc2cc(=O)[nH]c3ccccc23)c1
4.94 | < 5.00 | 5.10 | 6.82 | Nc1ccncc1CNc1cccc(Oc2cc(=O)[nH]c3ccccc23)c1
